The values below are quoted from earlier work in PMC9981747, “A covalent BTK ternary complex compatible with targeted protein degradation” (Nature Communications, 2023).

Each structure is given as a SMILES string. A value given as a limit tells only on which side of the number the result lay.

One may read the Cmax as the peak of the concentration-time curve.

Details of data set [1]: method as in PMID 27274052. The note with it: cited from earlier work.
On the set-up of data set [2]: method as in PMID 31879210. The note with it: 1 mg/kg IV; cited from earlier work.

Consider `Cc1ncsc1-c1ccc([C@H](C)NC(=O)[C@@H]2C[C@@H](O)CN2C(=O)[C@@H](NC(=O)COCCCOCCNC(=O)C[C@@H]2N=C(c3ccc(Cl)cc3)c3c(sc(C)c3C)-n3c(C)nnc32)C(C)(C)C)cc1` [ARV-771], for which the “concentrations in sub-chronic tumor growth inhibition study” value in data set [1] (in 4 of 8 rodents tested) was greater than 2000 nM. Further, the Cmax in data set [1] (single 10 mg/kg sc dose, read-out: plasma Cmax) is roughly 1700 nM.
`Nc1ncnc2c1c(-c1ccc(Oc3ccccc3)cc1)nn2C1CCN(CCOCCOCCOc2ccc3c(c2)CN(C2CCC(=O)NC2=O)C3=O)CC1` (stereo not drawn) [SJF620]: the exposure entry in data set [2] is “micromolar exposures”.
